In PubChem BioAssay (NCI):
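Where inhibition never reached the appropriate level, the endpoint shown equals the highest concentration tested. Otherwise, values were interpolated linearly from a five-concentration, 48-hour dose response in 96-well plates. Abbreviation: GI50, concentration required for 50% inhibition of growth. TGI denotes the concentration required for complete inhibition of growth.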

Assays:
Test in all cases: NCI tumour cell line growth inhibition, 48 h
[1] = test system: LXFL 529 NSCLC
[2] = test system: XF 498 CNS
[3] = test system: RXF-631 renal
[4] = test system: DMS 273 small cell lung
[5] = test system: P388 leukemia
[6] = test system: SN12K1 renal
[7] = test system: P388/ADR leukemia

| Compound | TGI [1] | TGI [2] | TGI [4] | TGI [5] | TGI [6] | further results |
| --- | --- | --- | --- | --- | --- | --- |
| CC1OC=CC(=O)C1O (stereo not given) | > 100 µM | > 100 µM |  |  |  |  |
| c1ccc(COc2cccc3cccnc23)cc1 | > 100 µM | > 100 µM |  |  |  | TGI [3]: > 100 µM |
| CN(CCN(C)C(=O)CCn1ccc(=O)[nH]c1=O)C(=O)CCn1ccc(=O)[nH]c1=O | > 100 µM | > 100 µM | > 100 µM |  |  |  |
| C=C1CC(OC)(C(O)C(=O)N[C@H]2OCO[C@H]3C2O[C@H](C[C@H](O)COC)C(C)(C)C3OC)O[C@H](C)[C@@H]1C (stereo not given in full) |  | > 0.00772 µM |  | > 0.00772 µM | > 0.00772 µM |  |
| c1ccc(-c2[nH]c(-c3ccccc3)c(-c3cnccn3)c2-c2cnccn2)cc1 |  | > 100 µM | > 100 µM |  |  |  |
| NC1CCCCC1N.O=S(=O)([O-])CCCN1CCN(CCO)CC1.O=S(=O)([O-])CCCN1CCN(CCO)CC1.[Pt+4] |  | 24.6 µM | 19.9 µM | > 32 µM | > 100 µM | GI50 [5]: 0.129 µM; GI50 [7]: 2.56 µM; TGI [7]: > 47.7 µM; GI50 [6]: 3.29 µM; GI50 [2]: 1.25 µM; GI50 [4]: 1.24 µM |
| CC(=O)[C@H]1CCC2[C@@H]3CC=C4C(O)C(OS(=O)(=O)O)CC[C@]4(C)C3CC[C@@]21C (stereo not given in full) |  |  | > 100 µM | > 100 µM | > 100 µM | TGI [7]: > 100 µM |
| Nc1ccc(-c2nc3ccccc3s2)cc1 | 33.4 µM |  |  |  |  | TGI [3]: 46.2 µM |
| CCCCCCc1cn([C@H]2C[C@H](O)[C@@H](CO)O2)c(=O)[nH]c1=O |  | > 100 µM | > 100 µM | > 100 µM | > 100 µM | TGI [7]: > 100 µM |
| O=C1OC(c2ccccc2)=N/C1=C/N1CCCC1C(=O)O (stereo not given) | > 100 µM | > 100 µM | > 100 µM |  |  | TGI [3]: > 100 µM |
| CC(=O)O[C@H]1C(=O)[C@@]2(C)C(C(OC(=O)c3ccccc3)[C@]3(O)CC(OC(=O)C(O)C(NC(=O)c4ccccc4)c4ccc(C)cc4)C(C)=C1C3(C)C)[C@]1(OC(C)=O)CO[C@@H]1C[C@@H]2O (stereo not given in full) | 11.1 µM | 0.134 µM | 2.89 µM |  |  |  |
| CC1(C)N=C(N)N=C(N)N1c1ccc(OCCCOc2ccccc2)c(Cl)c1 |  |  | 1.15 µM | 10.3 µM | 11.2 µM | TGI [7]: > 100 µM |
| COc1cccc2c1[C@]1(O)C(O)CCCC21 (stereo not given in full) | > 100 µM |  | > 100 µM |  |  |  |
| O=C1OC2C=CC1C1(CCOC1=O)C2 (stereo not given) | > 100 µM | > 100 µM | > 100 µM |  |  |  |
